# Results taken from article PMC12396409, “Screening and hit evaluation of a microbial metabolite library against the pathogenic Plasmodium falciparum and Toxoplasma gondii parasites” (International Journal for Parasitology: Drugs and Drug …, 2025).
# Like-named read-outs stand apart in the source and are kept apart here.
# Assays:
# [1] = test system: T. gondii RH strain (RH-Tub-eYFP) tachyzoites; test: microbe, parasite or virus in culture; assay type: cell-based, Toxoplasma gondii; conditions: 72 h; for percent parasite growth at 2 µg/mL: Toxoplasma gondii
# [2] = test system: P. falciparum 3D7 parasites; test: P. falciparum growth inhibition assay, 2-cycle (120 h treatment), delayed-death screen and dose-response; assay type: cell-based, Plasmodium falciparum; conditions: for activity at 2 µg/mL: Plasmodium falciparum, 3D7
# [3] = test system: P. falciparum 3D7 parasites; test: P. falciparum growth inhibition assay, 1-cycle (72 h treatment), SYBR DNA staining (library screen at 2 μg/mL and dose-response); assay type: cell-based, Plasmodium falciparum; conditions: for activity at 2 µg/mL: Plasmodium falciparum, 3D7
# [4] = library screen at 2 μg/mL, % growth, replicate 1
# [5] = library screen at 2 μg/mL, % growth, replicate 2
# [6] = library screen at 2 μg/mL, 120 h, % growth, replicate 1
# [7] = library screen at 2 μg/mL, 120 h, % growth, replicate 2
# [8] = library screen at 2 μg/mL, 72 h, % growth, replicate 1
# [9] = library screen at 2 μg/mL, 72 h, % growth, replicate 2
# [10] = T. gondii, parasite screen 2 μg/mL, % growth, replicate 1
# [11] = T. gondii, parasite screen 2 μg/mL, % growth, replicate 2
# [12] = P. falciparum, 120 h, parasite screen 2 μg/mL, % growth, replicate 1
# [13] = P. falciparum, 120 h, parasite screen 2 μg/mL, % growth, replicate 2
# [14] = P. falciparum, 72 h, parasite screen 2 μg/mL, % growth, replicate 1
# [15] = P. falciparum, 72 h, parasite screen 2 μg/mL, % growth, replicate 2
# [16] = T. gondii, parasite screen at 2 μg/mL, % growth, replicate 1
# [17] = T. gondii, parasite screen at 2 μg/mL, % growth, replicate 2
# [18] = P. falciparum 3D7, 120 h, parasite screen at 2 μg/mL, % growth, replicate 1
# [19] = P. falciparum 3D7, 120 h, parasite screen at 2 μg/mL, % growth, replicate 2
# [20] = P. falciparum 3D7, 72 h, parasite screen at 2 μg/mL, % growth, replicate 1
# [21] = P. falciparum 3D7, 72 h, parasite screen at 2 μg/mL, % growth, replicate 2
compound,measurement,setting,value
Dihydrocyclosporin A,Tg_72h_%Growth_Rep1,[1]; [4],8.15%
same,Tg_72h_%Growth_Rep2,[1]; [5],8.03%
same,Pf_120h_%Growth_Rep1,[2]; [6],3.25%
same,Pf_120h_%Growth_Rep2,[2]; [7],2.98%
same,Pf_72h_%Growth_Rep1,[3]; [8],1.22%
same,Pf_72h_%Growth_Rep2,[3]; [9],-3.30%
CC(=O)N[C@H](CO)[C@H](O)c1ccc([N+](=O)[O-])cc1 [Corynecin I],Tg_72h_%Growth_Rep1,"[1]; T. gondii, screen at 2 μg/mL, replicate 1",123.69%
same,Tg_72h_%Growth_Rep2,"[1]; T. gondii, screen at 2 μg/mL, replicate 2",87.57%
same,Pf_120h_%Growth_Rep1,"[2]; P. falciparum, 120 h, screen at 2 μg/mL, replicate 1",83.28%
same,Pf_120h_%Growth_Rep2,"[2]; P. falciparum, 120 h, screen at 2 μg/mL, replicate 2",82.34%
same,Pf_72h_%Growth_Rep1,"[3]; P. falciparum, 72 h, screen at 2 μg/mL, replicate 1",83.09%
same,Pf_72h_%Growth_Rep2,"[3]; P. falciparum, 72 h, screen at 2 μg/mL, replicate 2",83.78%
CN1C(=O)c2ccccc2-n2c(nc3ccccc3c2=O)[C@@]12O[C@H]2c1ccccc1 [Benzomalvin C],Tg_72h_%Growth_Rep1,[1]; [4],89.14%
same,Tg_72h_%Growth_Rep2,[1]; [5],100.15%
same,Pf_120h_%Growth_Rep1,[2]; [6],69.94%
same,Pf_120h_%Growth_Rep2,[2]; [7],71.59%
same,Pf_72h_%Growth_Rep1,[3]; [8],80.29%
same,Pf_72h_%Growth_Rep2,[3]; [9],84.20%
C[C@H]1NC(=O)[C@@H]2CCCCN2C(=O)CN(C)C(=O)CNC(=O)[C@@H]2CCCCN2C(=O)[C@H](NC(=O)c2nc3ccccc3cc2O)[C@@H](C)NC(=O)[C@@H]2CCCCN2C(=O)CN(C)C(=O)CNC(=O)[C@@H]2CCCCN2C(=O)[C@@H]1NC(=O)c1nc2ccccc2cc1O [Quinaldopeptin],Tg_72h_%Growth_Rep1,[1]; [10],3.09%
same,Tg_72h_%Growth_Rep2,[1]; [11],0.65%
same,Pf_120h_%Growth_Rep1,[2]; [12],19.16%
same,Pf_120h_%Growth_Rep2,[2]; [13],8.74%
same,Pf_72h_%Growth_Rep1,[3]; [14],9.69%
same,Pf_72h_%Growth_Rep2,[3]; [15],1.67%
C=C1CCO[C@]2([C@@H](O)[C@@](C)(O)CO)NC(=O)[C@@]1(O)NC2=O [Bicyclomycin],percent parasite growth at 2 µg/mL,"[1]; library screen at 2 μg/mL, % growth, replicate 1, read-out: Tg_72h_%Growth_Rep1",126%
same,percent parasite growth at 2 µg/mL,"[1]; library screen at 2 μg/mL, % growth, replicate 2, read-out: Tg_72h_%Growth_Rep2",100%
same,activity at 2 µg/mL,"[2]; library screen at 2 μg/mL, 120 h, % growth, replicate 1, read-out: Pf_120h_%Growth_Rep1",102%
same,activity at 2 µg/mL,"[2]; library screen at 2 μg/mL, 120 h, % growth, replicate 2, read-out: Pf_120h_%Growth_Rep2",86.7%
same,activity at 2 µg/mL,"[3]; library screen at 2 μg/mL, 72 h, % growth, replicate 1, read-out: Pf_72h_%Growth_Rep1",82.6%
same,activity at 2 µg/mL,"[3]; library screen at 2 μg/mL, 72 h, % growth, replicate 2, read-out: Pf_72h_%Growth_Rep2",88%
COc1ccc2c(c1OC)C[N+]1(C)CCc3cc4c(cc3C1C2)OCO4.[I-] (stereo not drawn) [BIA-M1962],Tg_72h_%Growth_Rep1,[1]; [16],93.48%
same,Tg_72h_%Growth_Rep2,[1]; [17],106.99%
same,Pf_120h_%Growth_Rep1,[2]; [18],5.27%
same,Pf_120h_%Growth_Rep2,[2]; [19],17.95%
same,Pf_72h_%Growth_Rep1,[3]; [20],14.79%
same,Pf_72h_%Growth_Rep2,[3]; [21],27.45%
COc1c(OC/C=C(\C)CCC=C(C)C)ccc2ccc(=O)oc12 [Collinin],percent parasite growth at 2 µg/mL,"[1]; T. gondii, screen at 2 μg/mL, replicate 1, read-out: Tg_72h_%Growth_Rep1",77.5%
same,percent parasite growth at 2 µg/mL,"[1]; T. gondii, screen at 2 μg/mL, replicate 2, read-out: Tg_72h_%Growth_Rep2",110%
same,activity at 2 µg/mL,"[2]; P. falciparum, 120 h, screen at 2 μg/mL, replicate 1, read-out: Pf_120h_%Growth_Rep1",60.9%
same,activity at 2 µg/mL,"[2]; P. falciparum, 120 h, screen at 2 μg/mL, replicate 2, read-out: Pf_120h_%Growth_Rep2",78%
same,activity at 2 µg/mL,"[3]; P. falciparum, 72 h, screen at 2 μg/mL, replicate 1, read-out: Pf_72h_%Growth_Rep1",69.5%
same,activity at 2 µg/mL,"[3]; P. falciparum, 72 h, screen at 2 μg/mL, replicate 2, read-out: Pf_72h_%Growth_Rep2",86.1%
CO[C@H]1/C=C/C=C/C=C/C[C@H](OC(=O)[C@@H](C)NC(=O)C2CCCCC2)[C@H](C)[C@@H](O)/C(C)=C\CCC2=CC(=O)C=C(NC(=O)C1)C2=O [Ansatrienin A],Tg_72h_%Growth_Rep1,[1]; [4],38.64%
same,Tg_72h_%Growth_Rep2,[1]; [5],44.79%
same,Pf_120h_%Growth_Rep1,[2]; [6],4.00%
same,Pf_120h_%Growth_Rep2,[2]; [7],-9.91%
same,Pf_72h_%Growth_Rep1,[3]; [8],2.60%
same,Pf_72h_%Growth_Rep2,[3]; [9],3.94%
COc1cc(C)c(C(=O)O)c(OC)c1 [BIA-O1659],Tg_72h_%Growth_Rep1,[1]; [16],135.87%
same,Tg_72h_%Growth_Rep2,[1]; [17],85.39%
same,Pf_120h_%Growth_Rep1,[2]; [18],91.75%
same,Pf_120h_%Growth_Rep2,[2]; [19],145.28%
same,Pf_72h_%Growth_Rep1,[3]; [20],84.80%
same,Pf_72h_%Growth_Rep2,[3]; [21],98.06%
COc1c(O)cc2cc(C)oc(=O)c2c1O [Reticulol],Tg_72h_%Growth_Rep1,[1]; [10],97.11%
same,Tg_72h_%Growth_Rep2,[1]; [11],97.69%
same,Pf_120h_%Growth_Rep1,[2]; [12],-0.78%
same,Pf_120h_%Growth_Rep2,[2]; [13],4.83%
same,Pf_72h_%Growth_Rep1,[3]; [14],1.99%
same,Pf_72h_%Growth_Rep2,[3]; [15],0.81%
